Experiments:
panel of trained testers = test: Taste profile of the pure substance in saline or sugar solution, tasting by a panel of trained testers; type: in vivo, human; conditions: for Taste profile: pure substance in saline or sugar solution; for Umami character: own tests, tasting
Description: The ethyl ester (3) of a partially hydrogenated geranyl derivate has already been described in the literature (Maslozhirovaya Promyshlennost 1983, 4, 26-27). In the context of our own tests the corresponding methyl ester (4) during tasting by a panel of trained testers was described as very neutral; the corresponding methyl amine (5) was assigned fruity notes (see Table 2 contained within the examples of the present text). In the following, selected substances manufactured according to the general instructions described above are presented. In each case the taste profiles have been determined by determining the taste impression of the respective substance as a pure substance in saline or sugar solution and therefore deviate from the taste impressions (in beef extracts) shown in Table 1 and FIG. 1. The following structures are further examples from this substance class, prepared and tasted according to AAV 1 and AAV 2—on the basis of various alcohols and amines.

[1] = Sensory profile in American beef extract base (Table 1, FIG. 1); type: in vivo; parameters: scale not given here
Description: This is also shown in Table 1 and the spider diagram in FIG. 1, in which an American beef extract as a base is compared with such a base plus the addition of 10 ppm of a compound (I) according to the invention and/or 10 ppm of a compound of formula (II) according to the invention and with such a base plus the addition of 0.05 weight % of MSG (monosodium glutamate).

[2] = system: panel of trained test persons; test: Application in green tea drink, tasting panel; type: in vivo, human; conditions: green tea drink with 0.008 weight % of a 1% solution in propylene glycol
Procedure: The green tea concentrate is mixed with a 1% solution of N-((E)-3,7-dimethyl-octa-2,6-dienyl)-oxalamide methyl ester (I) in propylene glycol. Then it is topped up with demineralized water and thoroughly mixed again. The product is then filtered, packaged ready for consumption and sterilized at 118° C.

[3] = beef extract + 0.05 weight % MSG

For `CNC(=O)C(=O)OC/C=C(\C)CCC=C(C)C`, which Taste profile (panel of trained testers) is on record?
Its Taste profile is “soapy, flowery, per- fumey”.

With `COC(=O)C(=O)NCC=C(C)C` as the compound, how does the Taste profile (panel of trained testers) read?
The Taste profile was “taste of its own, sol- vent”.

With `CNC(=O)C(=O)NCC=C(C)C` as the compound, how does the Taste profile (panel of trained testers) read?
Its Taste profile is “neutral”.

With `COC(=O)C(=O)NCCC(C)CCCC(C)C` (stereo not shown) as the compound, how does the Taste profile (panel of trained testers) read?
The Taste profile was “fatty, bitter, metallic”.

Which Taste profile (panel of trained testers) does the source give for `CNC(=O)C(=O)NCCC(C)CCCC(C)C` (stereo not shown) here?
The Taste profile was “neutral”.

Which results are given for `N[C@@H](CCC(=O)O)C(=O)[O-].[Na+]` [MSG, monosodium glutamate, reference compound]?
Baked, roasted [1, 3]: 5.00; Bitter [1, 3]: 1.35; Meaty [1, 3]: 5.47; Metallic [1, 3]: 3.47; Mouth-watering [1, 3]: 4.53; Mouthfeel [1, 3]: 5.41; Salty [1, 3]: 3.29; Sour [1, 3]: 2.94; Sweet [1, 3]: 2.41; Tenacity, long-lasting [1, 3]: 5.06

What does the source list for `CC(C)=CCC/C(C)=C/CNC(=O)C(=O)NC/C=C(\C)CCC=C(C)C` [formula (1), N,N′-Bis-((E)-3,7-dimethyl-octa-2,6-dienyl)-oxalamide]?
Umami character (panel of trained testers): did not demonstrate any umami character; Taste profile (panel of trained testers): neutral, slightly hot

Which results are given for `CC(C)=CCC/C(C)=C\CNC(=O)C(=O)NC/C=C(/C)CCC=C(C)C` [formula (2), N,N′-Bis-((Z)-3,7-dimethyl-octa-2,6-dienyl)-oxalamide]?
Umami character (panel of trained testers): did not demonstrate any umami character; Taste profile (panel of trained testers): neutral, slight burning

With `COC(=O)C(=O)NCCC(C)CCC=C(C)C` (stereo not shown) [formula (4)] as the compound, how does the Taste profile (panel of trained testers; listed as (4)) read?
Its Taste profile is “very neutral”.

What about the Taste profile (panel of trained testers; listed as drawing 23) of the same compound?
Its Taste profile is “neutral”.

With `CNC(=O)C(=O)NCCC(C)CCC=C(C)C` (stereo not shown) [formula (5)] as the compound, how does the Taste profile (panel of trained testers; listed as (5)) read?
Its Taste profile is “fruity notes”.

What about the Taste profile (panel of trained testers; listed as drawing 24) of the same compound?
The Taste profile was “fruity”.

For `CCOC(=O)C(=O)NC/C=C(\C)CCC=C(C)C` [formula (6), N-((E)-3,7-dimethyl-octa-2,6-dienyl)-oxalic acid amide-ethyl-ester], which Taste profile (panel of trained testers) is on record?
The Taste profile was “musty, herbaceous and chemical”.

Which Taste profile (panel of trained testers; listed as (7)) does the source give for `CCNC(=O)C(=O)NC/C=C(\C)CCC=C(C)C` [formula (7)] here?
The Taste profile was “very neutral”.

What about the Taste profile (panel of trained testers; listed as drawing 19) of the same compound?
The Taste profile was “neutral”.

What does the source list for `COC(=O)C(=O)NC/C=C(\C)CCC=C(C)C` [formula (I), N-((E)-3,7-dimethyl-octa-2,6-dienyl)-oxalic acid amide-methyl-ester]?
Taste compared with the unflavored green tea base [2]: markedly preferable; Baked, roasted ([1]; beef extract + 10 ppm compound): 3.55; Bitter ([1]; beef extract + 10 ppm compound): 1.36; Meaty ([1]; beef extract + 10 ppm compound): 4.55; Metallic ([1]; beef extract + 10 ppm compound): 3.82; Mouth-watering ([1]; beef extract + 10 ppm compound): 3.64; Mouthfeel ([1]; beef extract + 10 ppm compound): 4.45; Salty ([1]; beef extract + 10 ppm compound): 2.64; Sour ([1]; beef extract + 10 ppm compound): 2.91; Sweet ([1]; beef extract + 10 ppm compound): 1.36; Tenacity, long-lasting ([1]; beef extract + 10 ppm compound): 3.73; Umami character (panel of trained testers): clear umami taste; Taste profile (panel of trained testers): sweet, full, prickling, umami

Which “Baked, roasted” value ([1]; beef extract + 10 ppm compound) does the source give for `CNC(=O)C(=O)NC/C=C(\C)CCC=C(C)C` [formula (II), N-((E)-3,7-dimethyl-octa-2,6-dienyl)-N′-methyl-oxalamide] here?
The value was 4.27.

And the Bitter ([1]; beef extract + 10 ppm compound)?
The Bitter was 1.00.

And the Meaty ([1]; beef extract + 10 ppm compound)?
The Meaty was 5.09.

What about the Metallic ([1]; beef extract + 10 ppm compound) of the same compound?
The Metallic was 3.55.

And the Mouth-watering ([1]; beef extract + 10 ppm compound)?
Its Mouth-watering is 4.14.

And the Mouthfeel ([1]; beef extract + 10 ppm compound)?
Its Mouthfeel is 4.73.

What about the Salty ([1]; beef extract + 10 ppm compound) of the same compound?
Its Salty is 2.82.

What about the Sour ([1]; beef extract + 10 ppm compound) of the same compound?
The Sour was 2.45.

What about the Sweet ([1]; beef extract + 10 ppm compound) of the same compound?
Its Sweet is 2.27.

And the “Tenacity, long-lasting” value ([1]; beef extract + 10 ppm compound)?
The value was 4.64.

And the Umami character (panel of trained testers)?
Its Umami character is “clear umami taste”.

What about the Taste profile (panel of trained testers) of the same compound?
The Taste profile was “meaty, full, metallic, umami”.

Which Umami character (panel of trained testers) does the source give for `COC(=O)C(=O)NC/C=C(/C)CCC=C(C)C` [formula (III), N-((Z)-3,7-dimethyl-octa-2,6-dienyl)-oxalic acid amide-methyl-ester] here?
Its Umami character is “do not in fact have any umami character”.

What about the Taste profile (panel of trained testers) of the same compound?
The Taste profile was “musty, bitter, long-lasting”.

Which results are given for `CNC(=O)C(=O)NC/C=C(/C)CCC=C(C)C` [formula (IV), N-((Z)-3,7-dimethyl-octa-2,6-dienyl)-N′-methyl-oxalamide]?
Umami character (panel of trained testers): do not in fact have any umami character; Taste profile (panel of trained testers): sour
